In general, Papp refers to the rate of passage across a membrane or cell layer, normalised by area and donor concentration. A high value points to fast passage. The term Papp A→B denotes how fast a substance crosses the layer from the apical side. A word on the Papp B→A: it is the apparent permeability from the basolateral to the apical side of a cell layer.

Each structure is given as a SMILES string.

The record followed here is PMC4689772, “The Effect of Excipients on the Permeability of BCS Class III Compounds and Implications for Biowaivers” (Pharmaceutical Research, 2015).

One data set is described as follows: in vivo. As to conditions: Sprague-Dawley, rat, pH 6.8, Effective permeability coefficient (Peff), rat jejunum, mean ± SEM, n = 4.
The nature of the next data set: in vitro. As to conditions: Caco-2.
Data set [1] in a line: Bidirectional permeability across Caco-2 cell monolayers (no excipients). As to conditions: human; for recovery: Caco-2, no excipients, cassette, mean ± SD, n = 3.
Data set [2] is described as follows: Recirculating in situ rat intestinal perfusion (jejunum) in presence and absence of excipients. Conditions: Sprague-Dawley, pH 6.8, Effective permeability coefficient (Peff), mean ± SEM, n = 4.
Protocol: (§1) Sprague–Dawley rats (300–350 g) were used to perform closed-loop, in situ intestinal perfusion. Rats were fasted for 12–18 h before the experiment, and water was supplied ad libitum.
(§2) Four rats (n = 4) were used per treatment group, with a total of 17 groups: one control group (assay buffer, no excipients) and three or four treatment groups for each of the five excipients, with a different concentration for each group.
(§3) Rats were anesthetized with an intraperitoneal injection of ketamine/xylazine (1 ml/kg) and placed on a heating pad to maintain normal body temperature. After making a midline incision, the intestines were externalized. A 10-cm segment of the jejunum was tied off, cannulated at both ends to form a loop, and flushed with saline and air. The loop was equilibrated statically with dosing solution for 30 min, then flushed with air and perfused by recirculation (peristaltic pump) with 10 ml dosing solution at 0.2 ml/min. Samples of the perfusate were taken from the reservoir at 15, 30, 45, 60, 75, and 90 min for analysis by LC-MS/MS.
Data set [3] can be described thus: Unidirectional (A→B) permeability across Caco-2 cell monolayers in presence and absence of excipients. As to conditions: human, Caco-2, Apparent permeability coefficient (Papp), mean ± SEM, n = 4. (Caco-2 cells form a polarised layer with tight junctions and transporters.)

Protocol for in vitro: Samples were collected from the donor and receiver chambers at multiple time points and analyzed by LC-MS/MS.
Bidirectional permeability was measured in the absence of excipients only (n = 3 replicates), whereas unidirectional permeability was measured both in the presence and absence of excipients (n = 4 replicates).
Protocol for in vivo: as §1, §2, §3

With `Cc1cc(=O)n(-c2ccccc2)n1C` [Antipyrine, antipyrine], the Papp at 90 min stood at 143 ± 17 ×10⁻⁶ cm/s in the data set “in vivo” (Control (no excipient)); 168 ± 35 ×10⁻⁶ cm/s in the data set “in vivo” (HPMC 0.06 mg/ml); 117 ± 22 ×10⁻⁶ cm/s in the data set “in vivo” (PEG 400 0.06 mg/ml); 82 ± 15 ×10⁻⁶ cm/s in the data set “in vivo” (PEG 400 0.30 mg/ml (first run)); 153 ± 18 ×10⁻⁶ cm/s in “in vivo” (PEG 400 0.30 mg/ml, second run); 90 ± 26 ×10⁻⁶ cm/s in “in vivo” (PEG 400 […]). The Papp at 90 min in “in vivo” (Povidone 0.06 mg/ml) amounted to 133 ± 42 ×10⁻⁶ cm/s; in “in vivo” (SLS 0.01 mg/ml) it was 175 ± 23 ×10⁻⁶ cm/s; in “in vivo” (SLS 0.02 mg/ml), 93 ± 26 ×10⁻⁶ cm/s; in the data set “in vivo” (SLS 0.04 mg/ml), 108 ± 18 ×10⁻⁶ cm/s; in “in vivo” (SLS […]), 157 ± 46 ×10⁻⁶ cm/s.

In the data set “in vitro”, `Nc1nc2c(ncn2COCCO)c(=O)[nH]1` [Acyclovir, acyclovir] came in with a Papp A→B of 29.8 ± 1.8 ×10⁻⁶ cm/s. Also, the recovery amounted to 82.2 ± 8.6% in data set [1] (Caco-2, A→B Recovery) and 94.9 ± 12.2% in data set [1] (Caco-2, B→A Recovery).

`CC(C)(C)NCC(O)COc1cccc2c1CC(O)C(O)C2` (stereo not shown) [Nadolol, nadolol]: the apical-to-basolateral permeability (Papp A→B) in the data set “in vitro” was 33 ± 0.7 ×10⁻⁶ cm/s; in data set [1] (Caco-2), 0.29 ± 0.16 ×10⁻⁶ cm/s; in data set [3] (Control a (no excipient)), 0.21 ± 0.06 ×10⁻⁶ cm/s; in data set [3] (Control b (no excipient)), 0.21 ± 0.04 ×10⁻⁶ cm/s; in data set [3] (D-Lactose 1.0 mg/ml (control set b)) it was 0.14 ± 0.05 ×10⁻⁶ cm/s; in data set [3] (D-Lactose 2.0 mg/ml (control set b)), 0.13 ± 0.01 ×10⁻⁶ cm/s. Moreover, the Papp A→B in data set [3] (HPMC 0.06 mg/ml (control set a)) worked out at 0.14 ± 0.05 ×10⁻⁶ cm/s; in data set [3] (HPMC 1.0 mg/ml (control set b)), 0.13 ± 0.05 ×10⁻⁶ cm/s; in data set [3] (HPMC 2.0 mg/ml (control set b)), 0.11 ± 0.02 ×10⁻⁶ cm/s; in data set [3] (PEG 400 0.06 mg/ml (control set a)), 0.13 ± 0.01 ×10⁻⁶ cm/s; in data set [3] (PEG 400 […] (control set a)) it was 0.14 ± 0.04 ×10⁻⁶ cm/s; in data set [3] (PEG 400 […] (control set b)), 0.27 ± 0.04 ×10⁻⁶ cm/s. The Papp A→B in data set [3] (Povidone 0.06 mg/ml (control set a)) is 0.09 ± 0.02 ×10⁻⁶ cm/s; in data set [3] (Povidone 0.2 mg/ml (control set b)) it was 0.15 ± 0.05 ×10⁻⁶ cm/s; in data set [3] (SLS 0.01 mg/ml (control set a)), 0.23 ± 0.07 ×10⁻⁶ cm/s; in data set [3] (SLS 0.02 mg/ml (control set a)), 0.31 ± 0.05 ×10⁻⁶ cm/s; in data set [3] (SLS 0.04 mg/ml (control set a)) it was 0.31 ± 0.1 ×10⁻⁶ cm/s. In data set [1] (Caco-2), this compound displayed a Papp B→A of 0.71 ± 0.15 ×10⁻⁶ cm/s. Also, the recovery in data set [1] (Caco-2, A→B Recovery) came out at 83.9 ± 9.1%; in data set [1] (Caco-2, B→A Recovery), 90.7 ± 12.2%. For the same compound, the apparent permeability coefficient (Papp) at 90 min in data set [2] (other: closed-loop recirculating in situ jejunal perfusion, HPMC 0.06 mg/ml) came to 40 ± 7 ×10⁻⁶ cm/s; in data set [2] (other: closed-loop recirculating in situ jejunal perfusion, HPMC […]), 7 ± 17 ×10⁻⁶ cm/s; in data set [2] (other: closed-loop recirculating in situ jejunal perfusion, PEG 400 0.06 mg/ml) it was 24 ± 8 ×10⁻⁶ cm/s; in data set [2] (other: closed-loop recirculating in situ jejunal perfusion, PEG 400 0.30 mg/ml (first run)), 1 ± 1 ×10⁻⁶ cm/s; in data set [2] (other: closed-loop recirculating in situ jejunal perfusion, PEG 400 […]), 25 ± 8 ×10⁻⁶ cm/s; in data set [2] (other: closed-loop recirculating in situ jejunal perfusion, SLS 0.01 mg/ml), 32 ± 15 ×10⁻⁶ cm/s. Further, the apparent permeability coefficient (Papp) at 90 min in data set [2] (other: closed-loop recirculating in situ jejunal perfusion, SLS 0.02 mg/ml) was found to be 37 ± 10 ×10⁻⁶ cm/s; in data set [2] (other: closed-loop recirculating in situ jejunal perfusion, SLS 0.04 mg/ml), 1 ± 2 ×10⁻⁶ cm/s; in data set [2] (Povidone […]) it was 13 ± 1.5 ×10⁻⁶ cm/s.
